Results on 2 molecules are retold here after US20040019068A1, “Novel remedies or preventives for angiostenosis” (priority 2000, published 2004).

SMILES strings stand for the structures.

For one data set, the target named is T1, chymase (Canis lupus familiaris, UniProt P21842).
T1 construct: An isolated blood vessel was combined with a 10-fold volume (w/v) of a 20 mM sodium phosphate buffer solution (pH7.4); from tissue; host or cells: implanted jugular vein graft of beagle dogs (homogenate, high-salt/detergent extract supernatant)
T1 sequence (P21842 22-249): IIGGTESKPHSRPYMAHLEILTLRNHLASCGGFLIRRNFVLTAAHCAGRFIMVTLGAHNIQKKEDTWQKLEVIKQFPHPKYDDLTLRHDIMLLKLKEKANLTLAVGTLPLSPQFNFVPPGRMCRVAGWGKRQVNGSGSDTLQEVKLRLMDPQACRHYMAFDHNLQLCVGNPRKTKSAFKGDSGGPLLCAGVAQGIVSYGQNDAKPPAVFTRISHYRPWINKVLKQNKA
In words: Chymase activity measurement in implanted blood vessel, dog bypass graft model. Format: in vivo, dog (beagle). The following applies: implanted blood vessel 28 days after bypass grafting; 5 mg/kg orally once a day in capsules for 33 days; angiotensin I substrate. As for the experimental part:
(A) Bypass Graft Model Preparation
(§1) 10 Male adult beagles (8 to 10 kg) purchased from NIPPON SLC were anesthetized with an intravenous administration of pentobarbital sodium at 35 mg/kg per animal. The cervical position was incised, and a right jugular vein was isolated and implanted into the carotid artery on the same side (J.Hum.Hypertens., 12 (suppl.1), S21(1999)). After implantation, the incision was sutured and the animal was raised as usual after coming out from the anesthetic.
(§2) 2 Groups each including 5 dogs, which had been subjected to the bypass grafting, were provided as the treatment group and the non-treatment group. In the treatment group, 2-(5-formylamino-6-oxo-2-phenyl-1,6-dihydropyrimidin-1-yl)-N-[2,3-dioxo-1-phenylmethyl-6-(2-pyridyloxy)]hexylacetamide (No. 10) was orally administered at a dose of 5 mg/kg once a day in capsules every day over a period of 33 days in total from 5 days before the bypass grafting through the day of the blood vessel sampling.
28 Days after the bypass grafting, 35 mg/kg of pentobarbital sodium was given intravenously to anesthetize. […]
The chymase activity was measured using angiotensin I as a substrate. […] Immediately after completion of the reaction, angiotensin II produced was quantified using a high performance liquid chromatography, and the chymase activity of the tissue was calculated.

For data set [1] the following is noted: rat, in vivo, po, 100 mg/kg. The text has this: A compound employed in the invention has a low toxicity, and any compound undergoes a characteristically low accumulation of the toxicity when given continuously. […] In addition, another characteristic advantage is the possibility of giving orally as a therapeutic or prophylactic agent for an angiostenosis.

Data set [2] has as its system implanted blood vessel (jugular vein implanted into the carotid artery). In words: Restenosis test in dog bypass graft model. Format: in vivo, dog (beagle). To be noted: implanted blood vessel 28 days after bypass grafting, 5 mg/kg orally once a day for 33 days. As for the experimental part: as §1, §2
28 Days after the bypass grafting, 35 mg/kg of pentobarbital sodium was given intravenously to anesthetize. The implanted vein and the jugular vein on the other side were isolated, and each was cut at the center. […]
Based on the areas obtained in (D) described above and using the following equation, a vascular stenosis ratio of each individual animal was calculated. […]

Data set [3] concerns balloon-injured right carotid artery. In words: Restenosis test in dog carotid artery balloon injury model. Format: in vivo, dog (beagle). The following applies: 28 days after balloon injury. As to the method:
21 Male adult beagles (9.4 to 11.4 kg) purchased from NIPPON NOSAN KOGYO were anesthetized with an intravenous administration of pentobarbital sodium at 30 mg/kg per animal. After immobilizing each animal in the spine position, the cervical part was incised and the right and left carotid arteries were exposed. After intravenous administration of 1000 U of heparin sodium, the right carotid artery branch was incised and the tip of a balloon catheter (Baxter 4 Fr, 40 cm) was inserted from the carotid artery to the aortic arch. With the balloon being inflated with application of pressure, the catheter was drawn out to injure the intima of the blood vessel. This procedure was repeated 5 times, and the balloon catheter was taken out, and the incision in the blood vessel was ligated. After suturing the skin incision, 1000 U of heparin sodium and 100 mg of ampicillin sodium were administered intramuscularly for the postoperative maintenance.
3 Groups each including 7 balloon-injured dogs were divided as the high dose treatment group, low dose treatment group and non-treatment group. 2-(5-Formylamino-6-oxo-2-phenyl-1,6-dihydropyrimidin-1-yl)-N-[2,3-dioxo-1-phenylmethyl-6-(2-pyridyloxy)]hexylacetamide (No. 10) was given at a dose of 1 mg/kg in the high dose treatment group and at 0.2 mg/kg in the low dose treatment group once a day in capsules every day over a period of 33 days in total from 5 days before the balloon injury through the day of the blood vessel sampling. In the non-treatment group, vacant capsules were given every day. In all groups, 50 ml or more of a tap water was given forcibly after administration.
Twenty eight (28) days after the balloon injury, 30 mg/kg of pentobarbital sodium was given intravenously to anesthetize. After exsanguination, the right carotid artery as an injured position was isolated, and cut into 3 pieces. About 5 mm was cut out of each of the sections which were distal, proximal and center with regard to the heart. The left carotid artery was also isolated as a non-injury position, from the center of which about 5 mm was cut off, and each was fixed in 10% formalin neutral buffer solution.
Each vascular tissue embedded in a paraffin was shaved into sections, and subjected to a Hematoxylin-Eoshin staining. The intraluminal area, the area inside the intima and the area inside the media were measured using Olympus Image Analyzer Model VM-30.
Based on the areas obtained in (D) described above and using the following equation, a vascular stenosis ratio and a vascular lumen ratio of each position were calculated, and the mean of the three positions was regarded as the value of each individual animal. In the equation, A is an area inside the intima, B is an intraluminal area and C is an area inside the media. […]

The conditions of data set [4]: clinical tests in Japan (RINSHO IYAKU, 12(1), 65 (1996)); cited from earlier work.
[5] abbreviates: High dose 1 mg/kg once a day in capsules for 33 days, p<0.05 vs non-treatment.

On chymase, `O=CNc1cnc(-c2ccccc2)n(CC(=O)NC(Cc2ccccc2)C(=O)C(=O)CCCOc2ccccn2)c1=O` (stereo not drawn) [Compound No. 10, 2-(5-formylamino-6-oxo-2-phenyl-1,6-dihydropyrimidin-1-yl)-N-[2,3-dioxo-1-phenylmethyl-6-(2-pyridyloxy)]hexylacetamide] yielded a Chymase activity of 4.88 ± 0.53 mU/mg protein. The toxicological change result in data set [1] is reported as “no toxicological change”. The molecule also showed an intima area in data set [2] of 1.78 ± 0.12 mm2. For the same molecule, the values for the Vascular stenosis ratio in data set [2] ([(A-B)/(C-A)]x100), in data set [3] (setting [5]) and in data set [3] (Low dose 0.2 mg/kg once a day in capsules for 33 days) were 30.9 ± 8.8%, 10.5 ± 1.8 % and 13.6 ± 2.0%, respectively. Also, the Vascular lumen ratio is recorded as 41.6 ± 1.1 % in data set [3] (setting [5]) and 38.4 ± 2.0% in data set [3] (Low dose 0.2 mg/kg once a day in capsules for 33 days, B/Cx100).

Consider `COc1ccc(/C=C/C(=O)Nc2ccccc2C(=O)O)cc1OC` [tranilast], for which the “side effect in clinical tests” value in data set [4] is reported as “hepatic dysfunction as a highly frequent side effect”.
